# In patent US12653860B2, “Compositions and methods for editing beta-globin for treatment of hemaglobinopathies” (Vertex Pharmaceuticals Incorporated, priority 2019, dated 2026):
# “Also recorded” adds a separate entry of the source.
# Experiments:
# [1] = test system: GFP gene encoded in the AAVS1 locus of HEK293 T cells; assay: Indel formation by TIDE analysis, GFP to BFP edit; format: cell-based; conditions: regardless of ssODN or gRNA; vs DMSO control; FIGS. 2C-2D
# Procedure: The effect of DNA PK inhibition by Nu7441 correction of a DSB by the NHEJ pathway (e.g., introduce an indel at the DSB site) or HDR pathway (e.g., introduce a gene mutation encoded by a homology donor at the DSB site) was assessed using the reporter system described in Example 1. In this case gene-editing was evaluated in HEK293 T cells expressing GFP in the AAVS1 locus. To introduce a gene edit that converts GFP to BFP, cells were electroporated with ribonucleoprotein (RNP) comprised of Cas9 and gRNA1 (GFP target sequence identified by SEQ ID NO: 9; sgRNA spacer sequence identified by SEQ ID NO: 10) or gRNA2 (GFP target sequence identified by SEQ ID NO: 11; sgRNA spacer identified by SEQ ID NO: 12) that targets the GFP gene encoded in the AAVS1 locus. The cells were also transfected with ssODNs that encoded the gene correction necessary to convert GFP to BFP and homology arms complimentary to the sequence upstream and downstream of the target gene cut site. The efficiency of HDR repair was determined by measuring the level of cell BFP fluorescence. The efficiency of cutting (indel information) was monitored by TIDE analysis.
# Shown in FIGS. 2C-2D is a measure of indel formation performed by TIDE analysis for the same edits that are described for FIGS. 2A-2B. […] Thus, the DNA PK inhibitor Nu7441 achieves reduced repair of a DSB by the NHEJ pathway when a homology donor is provided.
# [2] = test system: HBB locus in CD34-expressing LT-HSPCs; assay: HDR insertion of AAV GFP donor at HBB locus (GFP fluorescence); format: cell-based, human; conditions: for HDR efficiency: 0.75 g mRNA encoding i53, 5 μM Nu7441, DM control mRNA, FIG. 6C
# Procedure: Frozen CD34-expressing LT-HSPCs derived from plerixafor (i.e., Mozibil®)+GCSF-dual mobilized peripheral blood obtained from healthy human donors were purchased from a commercial vendor. LT-HSPCs were maintained in culture media comprised of the reagents shown in Table 4 and were incubated at 37° C., 5% carbon dioxide, 4% oxygen. […] 2×10^5 cells were edited with 3 g Cas9 and 3 g gRNA. The target gene sequence (including target sequence with PAM), R02 spacer sequence, and R02 sgRNA sequence are identified in Table 3.
# The cells were transfected with a dsDNA homology donor encoding GFP under a SFFV promoter (SEQ ID NO: 60) that was delivered by AAV (SEQ ID NO: 56). […] The HDR efficiency was determined by measuring the level of GFP fluorescence in the cells following electroporation. To determine the effect of 53BP1 inhibition on HDR efficiency, the 53BP1 inhibitor i53 was introduced as an mRNA-encoded protein to the cells during electroporation with Cas9/gRNA RNP and AAV DNA that serves as a donor for homology directed repair.
# The effect of 53BP1 inhibition on HDR efficiency was compared to other mRNA-encoded proteins that inhibit the NHEJ pathway. These included the proteins CYREN1 and CYREN2 that inhibit Ku70/80, a heterodimer that binds DNA blunt ends to prevent processing of 3′ single-stranded DNA tails necessary for HDR repair. Cells were electroporated with RNP, an AAV-GFP homology donor and mRNA encoding either i53 (mRNA ORF shown in SEQ ID NO: 69), CYREN1, or CYREN2.
# The effect of treatment with i53 and Nu7441 was compared for improving efficiency of HDR repair of the HBB locus. Cells were treated with different doses of Nu7441 or with mRNA encoding i53 (ORF shown by SEQ ID NO: 69).
# [3] = test system: HBB locus in CD34-expressing LT-HSPCs; assay: HDR incorporation of sickle (E7V) edit at HBB locus in vitro, NGS assay; format: cell-based, human; conditions: for incorporation of the E7V gene edit: 1 μg mRNA encoding i53
# Excerpt: The cells were electroporated with 1 g mRNA encoding i53.
# [4] = test system: cKit mice; assay: Engraftment (percent chimerism) of edited human LT-HSPCs in irradiated mice; format: in vivo; conditions: for chimerism in bone marrow: FIG. 24B
# Procedure: The cells were administered by intravenous injection to cKit mice at 2 days following electroporation. Recipient mice were treated with sublethal irradiation (100 cGy) at 1 day prior to administration of LT-HSPCs to eliminate hematopoietic cells in the bone marrow and enable engraftment of the donor cells. Animals were evaluated for presence of human hematopoietic cells in peripheral blood at 8 and 16 weeks following LT-HSPC administration. The bone marrow was also evaluated for engraftment and maintenance of the HBB gene-edit at 16 weeks following LT-HSPC administration.
# Presence of human hematopoietic cells was measured by flow cytometry in mouse blood or bone marrow samples. Cells were gated on singlet, live cells. Mouse and human CD45-expressing hematopoietic cells were distinguished by antibodies targeting mouse or human CD45. Engraftment was measured as percent chimerism which was defined as the quantity of human CD45 positive cells divided by the total number of CD45 positive cells (e.g., human and mouse CD45 expressing cells combined). The lineage of human CD45 positive cells was determined using markers for CD19 (e.g., B cells), CD3 (e.g., T cells), CD33 (e.g., myeloid cells), and CD34 (hematopoietic stem/progenitor cells (HSPCs)).
# Human LT-HSPCs were administered to mice following electroporation with Cas9/gRNA and AAV encoding a sickle cell mutation (E7V) as shown in FIG. 21. LT-HSPCs were mobilized from healthy donors using plerixafor. LT-HSPCs were gene-edited following 2 days in culture. […] 1×10^6 cells were edited with 20 g Cas9 and 20 g gRNA.
# A dose of 0.5×10^6 cells was administered by intravenous injection to cKit mice at 2 days following electroporation. Recipient mice were treated with sublethal irradiation (100 cGy) at 1 day prior to administration of LT-HSPCs to eliminate hematopoietic cells in the bone marrow and enable engraftment of the donor cells. Animals were evaluated for presence of human hematopoietic cells in peripheral blood at 8 and 16 weeks following LT-HSPC administration. The bone marrow was also evaluated for engraftment and maintenance of the HBB gene-edit at 16 weeks following LT-HSPC administration.
compound,measurement,setting,value
O=c1[nH]c(=S)[nH]c(N=Cc2ccccc2)c1N=Cc1ccccc1 [SCR7],indel formation at the DSB site,[1],reduction compared to a DMSO control
O=c1cc(N2CCOCC2)oc2c(-c3cccc4c3sc3ccccc34)cccc12 [Nu7441],indel formation at the DSB site,[1],decreased indel formation
same,HDR efficiency,[2],comparable increase in HDR efficiency
same,HDR efficiency over RNP+AAV alone,"[3]; 5 μM Nu7441, pre-EP AAV.304, FIG. 22B",no improvement of HDR efficiency
same,"chimerism in blood, fold increase over RNP+AAV alone","[4]; 8 and 16 weeks, 5 μM Nu7441, FIG. 23B",2.5 fold
same,chimerism in bone marrow,"[4]; 16 weeks, AAV.304",higher than RNP+AAV alone
same,chimerism in blood,"[4]; both 8 and 16 weeks, 5 μM Nu7441, AAV.304, FIG. 23B",approximately 25%
O=C(Nc1ccc(Br)cc1)c1ccc(Br)c(S(=O)(=O)NCc2ccccc2)c1 [RS-1],indel formation at the DSB site,[1],reduction compared to a DMSO control
"i53: polypeptide inhibitor of 53BP1 (SEQ ID NO: 70), delivered as mRNA (ORF SEQ ID NO: 69)",HDR efficiency,[2],comparable increase in HDR efficiency
same,HDR efficiency vs RNP+AAV-only,"[2]; i53 mRNA 0.5, 1, 2 g (FIG. 6A) or 0.3 g, 1 g (FIG. 6B), CYREN1 or CYREN2 mRNA, any dose of XL413 (data not shown)",improved HDR efficiency; also recorded: increased HDR efficiency
same,"HDR efficiency, fold increase over RNP+AAV-only","[2]; mRNA encoding i53, AAV GFP donor 5,000 MOI, FIG. 6A",approximately 1.3 fold
same,incorporation of the E7V gene edit,"[3]; pre-EP AAV.304, FIG. 22B",58%
same,incorporation of the E7V gene edit,"[3]; AAV.307 + Cas9/R02 RNP, FIG. 10",68%
same,cells incorporating the sickle cell gene-edit,"[3]; LT-HSPCs mobilized by Mozobil alone, i53, FIG. 12B",approximately 70%
same,"HDR efficiency, fold increase over RNP+AAV alone","[3]; LT-HSPCs mobilized by Mozobil+GCSF, FIG. 12A",approximately 1.5 fold
same,incorporation of the sickle cell gene-edit by HDR,"[3]; LT-HSPCs mobilized by Mozobil+GCSF, i53, FIG. 12A",approximately 60%
same,percent chimerism in bone marrow,"[4]; 16 weeks, 0.25×10^6 LT-HSPCs, AAV.307, FIG. 16",no further decrease in chimerism
same,chimerism in bone marrow,"[4]; 16 weeks, AAV.304",comparable to RNP+AAV alone
same,levels of chimerism in blood,"[4]; blood 8 and 16 weeks, 0.5×10^6 cells, AAV.304, FIG. 23B",comparable to RNP+AAV alone
